Test results published in patent US5399565A, “Pyrazolidinone CCK and gastrin antagonists and pharmaceutical formulations therof” (priority 1993, dated 1995).

Columns and labels:
[1] = target: T1, peripheral type CCK receptors in rat pancreas (Rattus norvegicus, UniProt P30551); experiment: Binding to peripheral type CCK receptors in rat pancreas (3H-L-364,718); settings: at 10 μM; read-out: Pancreas Percent Inhibition
T1 construct: Pancreas was obtained from male Sprague-Dawley rats; from tissue; host or cells: pancreas membranes of male Sprague-Dawley rats
T1 sequence (P30551 1-444): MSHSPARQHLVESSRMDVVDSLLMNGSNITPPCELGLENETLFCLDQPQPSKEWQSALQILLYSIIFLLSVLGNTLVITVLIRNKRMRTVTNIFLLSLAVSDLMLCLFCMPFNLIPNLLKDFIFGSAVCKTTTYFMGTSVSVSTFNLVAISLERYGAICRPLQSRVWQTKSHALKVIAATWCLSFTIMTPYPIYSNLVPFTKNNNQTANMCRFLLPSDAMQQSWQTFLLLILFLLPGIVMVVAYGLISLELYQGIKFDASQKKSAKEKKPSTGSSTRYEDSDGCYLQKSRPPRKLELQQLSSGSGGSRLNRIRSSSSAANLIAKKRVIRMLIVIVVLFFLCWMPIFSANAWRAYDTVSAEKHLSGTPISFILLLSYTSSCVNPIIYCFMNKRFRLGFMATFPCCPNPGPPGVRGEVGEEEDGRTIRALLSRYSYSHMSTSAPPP
Method: Binding to peripheral type CCK receptors in rat pancreas was done according to the method of Chang et al. (Mol. Pharmacol. 30: 212-217, 1986) using ^3 H-L364, 718. Pancreas was obtained from male Sprague-Dawley rats, 150-200 g, after decapitation, and dissected free from adipose and connective tissue. The tissue was homogenized in 30 volumes of 50 mM Tris buffer, pH 7.4 and centrifuged at 40,000 g for 10 min. The tissue pellet was washed by resuspension and centrifugation as described above. The final pellet was suspended in 500 volumes of assay buffer (50 mM Tris buffer, pH 7.4, 5 mM MgCl2, 0.14 mg/ml bacitracin, and 5 mM dithiothreitol) to give a protein concentration of 30-60 μg/200 μl . Reagent volumes for the assay were the same as those used for CCK binding to brain membranes. Tritium labeled L-364,718 (Dupont NEN, NET-971) was used as the ligand at a concentration of 0.4-0.6 nM. The samples were incubated 1 hour at room temperature and then filtered as described for the CCK-brain receptor. Scintillation cocktail was added to the filters which were counted for radioactivity using a Micromedic Taurus automatic liquid scintillation counter.
Compound samples were prepared and IC-50 values were determined as described for the CCK-brain experiments. Non-specific binding was that amount left bound to the filters after adding 100 nM L-364,718.

brain CCK receptor = target: T2, brain CCK receptor (Mus musculus, UniProt P56481); experiment: CCK receptor binding, mouse brain membranes (125I-CCK-8 sulfate); settings: for inhibition at 1 µM / inhibition at 10 µM: read-out: Brain Percent Inhibition; for IC50: mouse brain membranes, read-out: Brain IC50
T2 construct: from tissue; host or cells: forebrain membranes of male CF-1 mice
T2 sequence (P56481 1-453): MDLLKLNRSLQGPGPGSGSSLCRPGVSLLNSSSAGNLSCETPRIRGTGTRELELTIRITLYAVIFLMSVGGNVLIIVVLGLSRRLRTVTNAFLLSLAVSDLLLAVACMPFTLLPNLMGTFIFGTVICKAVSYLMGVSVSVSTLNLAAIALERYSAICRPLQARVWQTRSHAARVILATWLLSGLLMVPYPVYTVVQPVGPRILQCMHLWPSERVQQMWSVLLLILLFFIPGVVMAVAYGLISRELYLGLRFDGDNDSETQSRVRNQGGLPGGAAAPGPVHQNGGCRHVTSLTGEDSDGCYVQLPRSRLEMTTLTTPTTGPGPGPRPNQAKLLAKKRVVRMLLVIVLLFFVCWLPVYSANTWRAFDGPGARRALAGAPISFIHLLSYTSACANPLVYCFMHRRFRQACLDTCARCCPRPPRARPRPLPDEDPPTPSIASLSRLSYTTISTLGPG
Method: Brain CCK receptor binding was performed using mouse brain membranes according to the method of Chang and Lotti (Proc. Natl. Acad. Sci. 83: 4923-4926, 1986). Male CF-1 mice, 23-25 g were sacrificed by cervical dislocation, the forebrain removed and placed in ice cold 50 mM Tris buffer, pH 7.4. The tissue was homogenized in 100 volumes of the Tris buffer with a Brinkman Polytron or Tekmar Tissumizer and then centrifuged at 40,000 g for 10 min. Pellets were resuspended in Tris buffer, centrifuged as above and then resuspended in 100 volumes of assay buffer, pH 6.5 (20 mM N-2-hydroxyethyl-piperazine-N'-2-ethane sulfonic acid (HEPES), 1 mM ethylene glycol his (2-aminoethyl ether-N,N,N',N'-tetraacetic acid) (EGTA), 5 mM MgCl2, 130 mM NaCl, and 0.25 mg/ml bacitracin). The binding assay consisted of 50 μL of compound (or buffer for total binding), 50 μL of ^125 I-CCK-8 sulfate (20 pM) (Amersham IM- 159), 200 μL of assay buffer and 200 μL of homogenate (80-120 μg protein). The samples were incubated at room temperature (25°) for 2 hours, and they were then filtered through GF/B glass fiber filters (soaked in wash buffer for 2 hours before use) using a 48 well Brandel cell harvester designed for receptor binding. The filters were washed twice with 3 ml of 50 mM Tris buffer, pH 7.4, containing 0.01% BSA and then counted for radioactivity in plastic tubes with a Micromedic 10/600 automatic gamma counter.
Compounds were dissolved in dimethyl sulfoxide (DMSO) at a concentration of 10 mM and then further diluted with assay buffer. The concentration of DMSO in the incubation was 0.1% or less and had no effect on the assay at that level. IC-50 values of displacement curves were determined using 7 concentrations of compound and were calculated using the ALLFIT computer program of DeLean, Munson and Rodbard (Am. J. Physiol. 235: E97-E102, 1978). Non-specific binding was determined as the displacement of the radioligand by 100 nM CCK-8 sulfate.

inhibition at 10 µM [1]	inhibition at 1 µM (brain CCK receptor)	inhibition at 10 µM (brain CCK receptor)	IC50 (brain CCK receptor)	Structure (SMILES)
85%	10%			O=C1NN(C(=O)Nc2cc(C(F)(F)F)cc(C(F)(F)F)c2)[C@H](c2ccccc2)[C@H]1c1ccccc1 (relative stereo) [Example 58]
23%		47%		O=C1NN(c2nc3ccccc3o2)[C@@H](c2ccccc2)[C@@H]1c1ccccc1 (relative stereo) [Example 87]
98%			80 nM	O=C1NN(C(=O)Nc2ccc(Cl)c([N+](=O)[O-])c2)[C@H](c2ccccc2)[C@H]1c1ccccc1 (relative stereo) [Example 48]
39%			1200 nM	CCCCC1C(c2ccccc2)C(=O)NN1C(=O)Nc1ccc(C(F)(F)F)cc1 (stereo not shown) [Example 71]
12%	37%			O=C(Nc1ccc(C(F)(F)F)cc1)N1N[C@@H](c2ccccc2)[C@H](c2ccccc2)C1=O (relative stereo) [Example 83]
14%			210 nM	Cc1ccc(NC(=O)N2NC(=O)[C@@H](c3ccccc3)[C@@H]2c2ccccc2)cc1 (relative stereo) [Example 25]
4%		55%		O=C1NN(C(=O)Cc2cccc(C(F)(F)F)c2)[C@H](c2ccccc2)[C@H]1c1ccccc1 (relative stereo) [Example 76]
33%			450 nM	O=C1NN(C(=O)Nc2ccc(OCCc3ccccc3)cc2)[C@@H](c2ccccc2)[C@@H]1c1ccccc1 (relative stereo) [Example 36]
78%			390 nM	O=C1NN(C(=O)NC2CCc3ccccc3C2)[C@@H](c2ccccc2)[C@@H]1c1ccccc1 (relative stereo) [Example 4, 1-[(2-[1,2,3,4-Tetrahydronaphthyl])aminocarbonyl]-4,5-diphenyl-3-pyrazolidinone]
7%			1300 nM	C[C@H](NC(=O)N1NC(=O)C(c2ccccc2)C1c1ccccc1)c1ccccc1 (stereo partly shown) [Example 101]
48%			390 nM	CC(C)Oc1ccc(NC(=O)N2NC(=O)[C@@H](c3ccccc3)[C@@H]2c2ccccc2)cc1 (relative stereo) [Example 35]
27%	42%			CCOC(=O)c1ccc(NC(=O)N2NC(=O)[C@@H](c3ccccc3)[C@@H]2c2ccccc2)cc1 (relative stereo) [Example 22]
37%			2200 nM	O=C1NN(C(=S)Nc2ccc(C(F)(F)F)cc2)[C@H](c2ccccc2)[C@H]1c1ccccc1 (relative stereo) [Example 62]
15%	25%			O=C1NN(C(=O)Nc2ccc(F)cc2F)[C@H](c2ccccc2)[C@H]1c1ccccc1 (relative stereo) [Example 56]
23%		40%		CN1C(=O)[C@H](c2ccccc2)[C@@H](c2ccccc2)N1C(=O)Nc1cccc(Cl)c1Cl (relative stereo) [Example 66]
71%	54%			O=C1NN(C(=O)Nc2ccc(C3CCCCC3)cc2)[C@@H](c2ccccc2)[C@@H]1c1ccccc1 (relative stereo) [Example 31]

inhibition at 10 µM [1]	inhibition at 1 µM (brain CCK receptor)	inhibition at 10 µM (brain CCK receptor)	IC50 (brain CCK receptor)	Structure (SMILES)
26%		70%		O=C1NN(c2nc3ccccc3s2)[C@@H](c2ccccc2)[C@@H]1c1ccccc1 (relative stereo) [Example 84]
23%			490 nM	CC(=O)c1ccc(NC(=O)N2NC(=O)[C@@H](c3ccccc3)[C@@H]2c2ccccc2)cc1 (relative stereo) [Example 23]
75%	82%			O=C1NN(C(=O)Nc2ccc(Oc3ccccc3)cc2)[C@@H](c2ccccc2)[C@@H]1c1ccccc1 (relative stereo) [Example 37]
20%		56%		O=C1NN(C(=O)Cc2ccc(C(F)(F)F)cc2)[C@H](c2ccccc2)[C@H]1c1ccccc1 (relative stereo) [Example 77]
37%			780 nM	COc1cccc(NC(=O)N2NC(=O)[C@H](c3ccccc3)[C@H]2c2ccccc2)c1 (relative stereo) [Example 42]
20%		16%		CC(C)C1C(c2ccccc2)C(=O)NN1C(=O)Nc1ccc(Br)cc1 (stereo not shown) [Example 73]
78%		56%		O=C1NN(C(=S)Nc2cccc(C(F)(F)F)c2)[C@H](c2ccccc2)[C@H]1c1ccccc1 (relative stereo) [Example 61]
78%			2200 nM	O=C1NN(C(=O)NCc2ccc(Cl)cc2)[C@@H](c2ccccc2)[C@@H]1c1ccccc1 (relative stereo) [Example 100]
75%	44%			O=C1NN(C(=O)Nc2cc(Cl)cc(Cl)c2)[C@H](c2ccccc2)[C@H]1c1ccccc1 (relative stereo) [Example 59]
61%		86%		O=C1NN(C(=O)NCCc2ccc(Cl)cc2)[C@@H](c2ccccc2)[C@@H]1c1ccccc1 (relative stereo) [Example 107]
15%		23%		O=C1NN(C(=O)c2ccc(C(F)(F)F)cc2)[C@H](c2ccccc2)[C@H]1c1ccccc1 (relative stereo) [Example 74]
6%			520 nM	O=C1NN(C(=O)Nc2ccc(F)cc2)[C@@H](c2ccccc2)[C@@H]1c1ccccc1 (relative stereo) [Example 17]
67%			260 nM	O=C1NN(C(=O)Nc2cccc(OCc3ccccc3)c2)[C@H](c2ccccc2)[C@H]1c1ccccc1 (relative stereo) [Example 44]
70%			4300 nM	O=C1CC(c2ccc(-c3ccccc3)cc2)N(C(=O)Nc2cccc(Cl)c2Cl)N1 (stereo not shown) [Example 68]
37%		40%		O=C1NN(C(=O)Nc2cccnc2)[C@@H](c2ccccc2)[C@@H]1c1ccccc1 (relative stereo) [Example 88]
22%		88%		O=C1NN(C(=O)Nc2ccc(Br)cc2)C(Cc2ccccc2)C1c1ccccc1 (stereo not shown) [Example 72]
